In patent US20240424111A1, “Degrader Compounds and Uses Thereof” (CALICO LIFE SCIENCES LLC, priority 2021, published 2024) one finds DC50 data, which are given here for 33 molecules.

Assay [1] addresses T1, PTPN2 (Mus musculus, UniProt Q06180).
T1 construct: HiBiT; host or cells: B16F10.4
T1 sequence (Q06180 1-406): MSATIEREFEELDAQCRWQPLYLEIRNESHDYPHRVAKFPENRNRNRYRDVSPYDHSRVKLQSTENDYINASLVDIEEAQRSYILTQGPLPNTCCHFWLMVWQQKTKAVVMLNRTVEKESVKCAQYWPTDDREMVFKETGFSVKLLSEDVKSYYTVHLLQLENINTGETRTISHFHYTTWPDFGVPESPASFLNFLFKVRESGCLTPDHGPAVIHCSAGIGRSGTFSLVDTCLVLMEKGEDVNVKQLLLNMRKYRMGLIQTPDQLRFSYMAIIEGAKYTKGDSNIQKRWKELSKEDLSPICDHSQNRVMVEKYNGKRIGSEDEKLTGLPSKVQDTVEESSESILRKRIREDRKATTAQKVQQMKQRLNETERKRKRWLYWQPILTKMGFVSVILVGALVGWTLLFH
The experiment in a line: HiBiT PTPN2 degradation in B16F10.4 cells, 24 hours. The format is cell-based. On the procedure: (§1) PTPN2 degradation was determined based on quantification of luminescent signal using Nano-Glo® HiBiT Lytic Assay kit. Test compounds were added to the 384-well plate from a top concentration of 10 μM with 11 points, half log titration in duplicates. 293T. 109 cells were added into 384-well plates at a cell density of 5000 cells per well. The plates were kept at 37° C. with 5% CO2 for 24 hours. The cells treated in the absence of the test compound were the negative control and the cells without Nano-Glo® HiBiT Lytic reagent were the positive control. After 24-hour incubation, Nano-Glo® HiBiT Lytic Assay reagents were added to the cells. Luminescence was acquired on EnVision™ Multilabel Reader (PerkinElmer, Santa Clara, CA, USA).
On the technique in general: The HiBiT peptide binds its large partner to form an active luciferase.

Assay [2] deals with T2, PTPN2 (Homo sapiens, UniProt P17706).
T2 construct: expressed in transfected cells; host or cells: 293T.109 (HiBiT-PTPN2), derived from 293T WT (ATCC)
T2 sequence (P17706 1-415): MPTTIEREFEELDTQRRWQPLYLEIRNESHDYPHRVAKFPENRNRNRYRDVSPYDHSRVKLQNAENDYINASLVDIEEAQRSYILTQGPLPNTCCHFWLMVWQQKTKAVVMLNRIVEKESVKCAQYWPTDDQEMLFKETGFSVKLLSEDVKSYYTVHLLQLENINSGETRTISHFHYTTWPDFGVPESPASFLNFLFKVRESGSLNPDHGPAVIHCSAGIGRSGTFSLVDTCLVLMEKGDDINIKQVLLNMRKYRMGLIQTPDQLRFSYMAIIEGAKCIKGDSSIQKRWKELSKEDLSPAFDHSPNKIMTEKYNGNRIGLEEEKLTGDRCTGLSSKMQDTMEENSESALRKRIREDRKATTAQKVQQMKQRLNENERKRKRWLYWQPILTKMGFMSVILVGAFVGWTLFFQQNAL
In words: HiBiT PTPN2 degradation in 293T.109 (HiBiT-PTPN2) cells, 24 hours. The format is cell-based. The following applies: 293T.109 cells.
Excerpt: Dulbecco's modified Eagle medium (DMEM) without phenol red and fetal bovine serum (FBS) were purchased from Gibco (Grand Island, NY, USA). Nano-Glo® HiBiT Lytic Assay System was purchased from Promega (Medison, WI, USA). 293T. 109 (HiBiT-PTPN2) cell line was generated by ectopically expressing PTPN2 with N-terminal HiBiT fusion tag in 293T WT cell line purchased from ATCC (Manassas, VA, USA). Cell culture flasks and 384-well microplates were acquired from VWR (Radnor, PA, USA).
PTPN2 Degradation Analysis
as §1

A value given as a limit tells only on which side of the number the result lay.

Regarding `COc1cc(CC(=O)Nc2ccc3c(F)c(N4CC(=O)NS4(=O)=O)c(O)cc3c2)ccc1-c1ccc2c(c1)n(C)c(=O)n2C1CCC(=O)NC1=O` (stereo not drawn) [Degrader 69], the DC50 on PTPN2 [1] and at PTPN2 [2] was 150 to 500 nM in each case.
`Cc1nn(CC(=O)Nc2ccc3c(F)c(N4CC(=O)NS4(=O)=O)c(O)cc3c2)c(C)c1-c1ccc2c(c1)n(C)c(=O)n2C1CCC(=O)NC1=O` (stereo not drawn) [Degrader 70]: the DC50 at PTPN2 [1] and at PTPN2 [2] was less than 50 nM each time.
For the molecule `Cn1c(=O)n(C2CCC(=O)NC2=O)c2ccc(Nc3ccc(CC(=O)Nc4ccc5c(F)c(N6CC(=O)NS6(=O)=O)c(O)cc5c4)cc3F)cc21` (stereo not drawn) [Degrader 71], the half-maximal degradation concentration (DC50) on PTPN2 [1] and at PTPN2 [2] was 50 to 150 nM in each case.
`Cn1c(=O)n(C2CCC(=O)NC2=O)c2ccc(Nc3cccc(CC(=O)Nc4ccc5c(F)c(N6CC(=O)NS6(=O)=O)c(O)cc5c4)c3)cc21` (stereo not drawn) [Degrader 72]: the values for the DC50 on PTPN2 [1] and at PTPN2 [2] were 50 to 150 nM and less than 50 nM, respectively.
As for `Cn1c(=O)n(C2CCC(=O)NC2=O)c2ccc(-c3ccc(NC(=O)Nc4ccc5c(F)c(N6CC(=O)NS6(=O)=O)c(O)cc5c4)cc3)cc21` (stereo not drawn) [Degrader 73], the DC50 on PTPN2 [1] and at PTPN2 [2] was 50 to 150 nM each time.
Regarding `Cn1c(=O)n(C2CCC(=O)NC2=O)c2cc(F)c(N3CCC(O)(CC(=O)Nc4ccc5c(F)c(N6CC(=O)NS6(=O)=O)c(O)cc5c4)CC3)cc21` (stereo not drawn) [Degrader 74], the results for the DC50 at PTPN2 [1] and on PTPN2 [2] were 150 to 500 nM and less than 50 nM, respectively.
`Cn1c(=O)n(C2CCC(=O)NC2=O)c2ccc3c(c21)CCCN3C1CCN(CC(=O)Nc2ccc3c(F)c(N4CC(=O)NS4(=O)=O)c(O)cc3c2)CC1` (stereo not drawn) [Degrader 75]: the 50% degradation concentration (DC50) at PTPN2 [1] and at PTPN2 [2] was not below 500 nM in each case.
As to `Cn1c(=O)n(C2CCC(=O)NC2=O)c2ccc(Oc3ccc(CC(=O)Nc4ccc5c(F)c(N6CC(=O)NS6(=O)=O)c(O)cc5c4)cc3)cc21` (stereo not drawn) [Degrader 76], the DC50 at PTPN2 [1] and at PTPN2 [2] was 50 to 150 nM each time.
As to `Cn1c(=O)n(C2CCC(=O)NC2=O)c2ccc(-c3cccc(CC(=O)Nc4ccc5c(F)c(N6CC(=O)NS6(=O)=O)c(O)cc5c4)c3)cc21` (stereo not drawn) [Degrader 77], the figures for the DC50 on PTPN2 [1] and on PTPN2 [2] were not below 500 nM and 150 to 500 nM, respectively.
For `Cn1c(=O)n(C2CCC(=O)NC2=O)c2ccc(C3CCN(C/C=C/c4ccc5c(F)c(N6CC(=O)NS6(=O)=O)c(O)cc5c4)CC3)cc21` (stereo not drawn) [Degrader 78] the same measures were not below 500 nM and 150 to 500 nM.
On to `Cc1cc(-c2ccc3c(c2)n(C)c(=O)n3C2CCC(=O)NC2=O)ccc1CC(=O)Nc1ccc2c(F)c(N3CC(=O)NS3(=O)=O)c(O)cc2c1` (stereo not drawn) [Degrader 79], for which the DC50 at PTPN2 [1] and at PTPN2 [2] was 50 to 150 nM in each case.
For `Cn1c(=O)n(C2CCC(=O)NC2=O)c2ccc(-c3cccc(CCC(=O)Nc4ccc5c(F)c(N6CC(=O)NS6(=O)=O)c(O)cc5c4)c3)cc21` (stereo not drawn) [Degrader 80], the DC50 at PTPN2 [1] is 150 to 500 nM; on PTPN2 [2], less than 50 nM.
On the same counts, the results for `Cc1cc(CC(=O)Nc2ccc3c(F)c(N4CC(=O)NS4(=O)=O)c(O)cc3c2)ccc1Oc1ccc2c(c1)n(C)c(=O)n2C1CCC(=O)NC1=O` (stereo not drawn) [Degrader 81] are 50 to 150 nM and 50 to 150 nM.
For `Cn1cc(C(=O)Nc2ccc3c(F)c(N4CC(=O)NS4(=O)=O)c(O)cc3c2)c2ccc(-c3ccc4c(c3)n(C)c(=O)n4C3CCC(=O)NC3=O)cc21` (stereo not drawn) [Degrader 82], the DC50 on PTPN2 [1] and on PTPN2 [2] was 150 to 500 nM in each case.
`Cn1c(=O)n(C2CCC(=O)NC2=O)c2ccc(-c3cc4cnn(CC(=O)Nc5ccc6c(F)c(N7CC(=O)NS7(=O)=O)c(O)cc6c5)c4cc3F)cc21` (stereo not drawn) [Degrader 83]: the DC50 on PTPN2 [1] and on PTPN2 [2] was less than 50 nM each time.
`Cn1c(=O)n(C2CCC(=O)NC2=O)c2ccc(N3CCC4(CC3)CN(CC(=O)Nc3ccc5c(F)c(N6CC(=O)NS6(=O)=O)c(O)cc5c3)C4)cc21` (stereo not drawn) [Degrader 84]: the DC50 on PTPN2 [1] lay in the range of 150 to 500 nM; at PTPN2 [2], 50 to 150 nM.
On the same counts, the results for `Cc1nn(C2CCC(=O)NC2=O)c2ccc(-c3ccc(CC(=O)Nc4ccc5c(F)c(N6CC(=O)NS6(=O)=O)c(O)cc5c4)cc3)cc12` (stereo not drawn) [Degrader 85] are 150 to 500 nM and 150 to 500 nM.
For `O=C1CCC(n2c3ccc(CCCCNC(=O)Nc4ccc5c(F)c(N6CC(=O)NS6(=O)=O)c(O)cc5c4)cc3c3cccnc32)C(=O)N1` (stereo not drawn) [Degrader 86] the same measures were not below 500 nM and not below 500 nM.
Turning to `Cc1cc(CC(=O)Nc2ccc3c(F)c(N4CC(=O)NS4(=O)=O)c(O)cc3c2)ccc1N(C)c1ccc2c(c1)n(C)c(=O)n2C1CCC(=O)NC1=O` (stereo not drawn) [Degrader 87], the DC50 at PTPN2 [1] and at PTPN2 [2] was 50 to 150 nM throughout.
For the molecule `Cn1c(=O)n(C2CCC(=O)NC2=O)c2ccc(-n3ccc(CC(=O)Nc4ccc5c(F)c(N6CC(=O)NS6(=O)=O)c(O)cc5c4)n3)cc21` (stereo not drawn) [Degrader 88], the DC50 was not below 500 nM on PTPN2 [1] and 150 to 500 nM at PTPN2 [2].
On the same counts, the results for `Cn1c(=O)n(C2CCC(=O)NC2=O)c2ccc(N3CCC(CNC(=O)Nc4ccc5c(F)c(N6CC(=O)NS6(=O)=O)c(O)cc5c4)CC3)cc21` (stereo not drawn) [Degrader 89] are 50 to 150 nM and 50 to 150 nM.
On the same counts, the results for `C[C@H]1CN(c2ccc3c(c2)n(C)c(=O)n3C2CCC(=O)NC2=O)CCN1CC(=O)Nc1ccc2c(F)c(N3CC(=O)NS3(=O)=O)c(O)cc2c1` (stereo partly drawn) [Degrader 90] are 50 to 150 nM and 150 to 500 nM.
On the same counts, the results for `C[C@@H]1CN(c2ccc3c(c2)n(C)c(=O)n3C2CCC(=O)NC2=O)CCN1CC(=O)Nc1ccc2c(F)c(N3CC(=O)NS3(=O)=O)c(O)cc2c1` (stereo partly drawn) [Degrader 91] are 150 to 500 nM and 50 to 150 nM.
As for `Cn1c(=O)n(C2CCC(=O)NC2=O)c2ccc(N3CC4(CCN(CC(=O)Nc5ccc6c(F)c(N7CC(=O)NS7(=O)=O)c(O)cc6c5)CC4)C3)cc21` (stereo not drawn) [Degrader 92], the values for the DC50 at PTPN2 [1] and at PTPN2 [2] were not below 500 nM and 150 to 500 nM, respectively.
With `Cn1c(=O)n(C2CCC(=O)NC2=O)c2ccc(N3CCN(CNC(=O)Nc4ccc5c(F)c(N6CC(=O)NS6(=O)=O)c(O)cc5c4)CC3)cc21` (stereo not drawn) [Degrader 93], the DC50 at PTPN2 [1] and on PTPN2 [2] was 50 to 150 nM in each case.
Consider `Cc1cc(C(C)C(=O)Nc2ccc3c(F)c(N4CC(=O)NS4(=O)=O)c(O)cc3c2)ccc1Nc1ccc2c(c1)n(C)c(=O)n2C1CCC(=O)NC1=O` (stereo not drawn) [Degrader 94], for which the figures for the DC50 on PTPN2 [1] and on PTPN2 [2] were 50 to 150 nM and 150 to 500 nM, respectively.
For `Cc1nn(CC(=O)Nc2ccc3c(F)c(N4CC(=O)NS4(=O)=O)c(O)cc3c2)c2ccc(-c3ccc4c(c3)n(C)c(=O)n4C3CCC(=O)NC3=O)cc12` (stereo not drawn) [Degrader 95] the same measures were less than 50 nM and less than 50 nM.
On the same counts, the results for `Cn1c(=O)n(C2CCC(=O)NC2=O)c2ccc(N3CC4(CC(OCC(=O)Nc5ccc6c(F)c(N7CC(=O)NS7(=O)=O)c(O)cc6c5)C4)C3)cc21` (stereo not drawn) [Degrader 96] are 150 to 500 nM and 50 to 150 nM.
For `Cn1c(=O)n(C2CCC(=O)NC2=O)c2ccc(N3CCCC(CC(=O)Nc4ccc5c(F)c(N6CC(=O)NS6(=O)=O)c(O)cc5c4)CC3)cc21` (stereo not drawn) [Degrader 97] the same measures were 150 to 500 nM and 50 to 150 nM.
In the case of `COC1(CC(=O)Nc2ccc3c(F)c(N4CC(=O)NS4(=O)=O)c(O)cc3c2)CCN(c2ccc3c(c2)n(C)c(=O)n3C2CCC(=O)NC2=O)CC1` (stereo not drawn) [Degrader 99], the figures for the DC50 on PTPN2 [1] and at PTPN2 [2] were 50 to 150 nM and less than 50 nM, respectively.
For the molecule `Cc1nn(C2CCC(=O)NC2=O)c2ccc(C3CCN(CC(=O)Nc4ccc5c(F)c(N6CC(=O)NS6(=O)=O)c(O)cc5c4)CC3)cc12` (stereo not drawn) [Degrader 100], the DC50 is 150 to 500 nM at PTPN2 [1] and less than 50 nM at PTPN2 [2].
For `Cc1nn(C2CCC(=O)NC2=O)c2ccc(N3CCC(CC(=O)Nc4ccc5c(F)c(N6CC(=O)NS6(=O)=O)c(O)cc5c4)CC3)cc12` (stereo not drawn) [Degrader 101], the DC50 on PTPN2 [1] and at PTPN2 [2] was not below 500 nM throughout.
For `Cn1c(=O)n(C2CCC(=O)NC2=O)c2ccc(C3CCN(C4CC(C(=O)Nc5ccc6cc(N7CC(=O)NS7(=O)=O)ccc6c5)C4)CC3(F)F)cc21` (stereo not drawn) [Degrader 102], the DC50 at PTPN2 [1] and on PTPN2 [2] was 50 to 150 nM in each case.

What is called DC50 is the concentration giving 50% degradation. Lower therefore signals degradation at low concentration.
